These results are taken from patent US5552308A, “CDNA clone of a rat serotonin transporter and protein encoded thereby” (priority 1991, dated 1996).

One series relates to serotonergic neurons. The settings on record: cited from earlier work.
The target of series [1] is T1, 5-HT transporter (Rattus norvegicus, UniProt P31652). Briefly: Inhibition of 3H-5-HT uptake in CV-1 cells transfected with the 5-HT transporter cDNA. It counts as cell-based. The settings on record: for inhibition of 5-HT uptake (in words): CV-1 cells transfected with 5HTT cDNA.
T1 sequence (P31652 whole entry): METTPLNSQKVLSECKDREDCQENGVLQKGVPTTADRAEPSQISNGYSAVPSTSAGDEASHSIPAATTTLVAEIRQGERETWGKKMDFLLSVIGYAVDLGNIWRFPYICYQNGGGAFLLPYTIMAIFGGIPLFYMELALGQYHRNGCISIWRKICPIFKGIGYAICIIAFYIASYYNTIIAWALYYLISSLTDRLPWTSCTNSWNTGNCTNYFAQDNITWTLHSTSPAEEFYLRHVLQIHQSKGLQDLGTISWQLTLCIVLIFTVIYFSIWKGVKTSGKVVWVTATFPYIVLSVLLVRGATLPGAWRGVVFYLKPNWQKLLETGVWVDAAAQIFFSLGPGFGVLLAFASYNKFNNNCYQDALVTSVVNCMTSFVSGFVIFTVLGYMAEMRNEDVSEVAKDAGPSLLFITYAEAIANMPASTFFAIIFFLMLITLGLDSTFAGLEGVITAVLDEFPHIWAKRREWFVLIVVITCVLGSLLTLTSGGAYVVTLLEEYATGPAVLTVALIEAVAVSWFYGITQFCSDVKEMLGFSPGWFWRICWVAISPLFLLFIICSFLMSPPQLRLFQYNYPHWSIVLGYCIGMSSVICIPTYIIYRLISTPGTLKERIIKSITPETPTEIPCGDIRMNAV
Series [2] has as its system 5-HT transporter. Particulars: cited from earlier work.
Series [3] concerns the target T1, 5-HT transporter. Description: 3H-5-HT uptake (saturation kinetics, ion dependence) in CV-1 cells transfected with the 5HTT cDNA. Particulars: read-out: Km of 3H-5-HT uptake; transfected CV-1 cells; 3H-5-HT 0.1 nM to 10 uM; 15 min; mean +/- SEM. The series is classed as cell-based.

`CNC(C)Cc1ccc2c(c1)OCO2` (racemic) [± MDMA, 3,4-Methylenedioxy-methamphetamine]: the “neurotoxicity to serotonergic neurons (in words)” value with serotonergic neurons is listed as “potent neurotoxin of serotonergic neurons which causes irreversible cell degeneration”. In addition, at 5-HT transporter [1], the Ki stood at 186 ± 27 nM and the “inhibition of 5-HT uptake (in words)” value is “potent inhibition of ^3 H-5-HT uptake”.
As for `CC(N)Cc1ccccc1` (stereo not drawn) [Amphetamine], the “transport by the 5-HT transporter and release of 5-HT (in words)” value with 5-HT transporter [2] was “substrates for transport by the 5-HT transporter and stimulate release of 5-HT”.
As to `NCCc1c[nH]c2ccc(O)cc12` [^3 H-5-HT, serotonin], the Michaelis constant (Km) on 5-HT transporter [3] amounted to 0.529 ± 0.107 µM.
For the molecule `COC(=O)[C@H]1[C@@H](OC(=O)c2ccccc2)C[C@@H]2CC[C@H]1N2C` [cocaine], the “inhibition of 5-HT uptake (in words)” value on 5-HT transporter [1] is listed as “relatively potent inhibitor of 5-HT uptake”.
In the case of `NCCc1ccc(O)c(O)c1` [dopamine], on 5-HT transporter [1], the inhibition constant Ki is above 10000 nM and the “inhibition of 5-HT uptake (in words)” value is listed as “ineffective at blocking 5-HT uptake”.
Take `OC1(c2ccc(Cl)cc2)c2ccccc2C2=NCCN21` (stereo not drawn) [mazindol]: on 5-HT transporter [1], the Ki was found to be 548 ± 120 nM and the “inhibition of 5-HT uptake (in words)” value is “lower affinity for the 5-HT transporter”.
The corresponding values for `NC[C@H](O)c1ccc(O)c(O)c1` [noradrenaline] are above 10000 nM and “ineffective at blocking 5-HT uptake”.

The term Ki denotes the equilibrium dissociation constant of an inhibitor or competing ligand from its target. A higher Ki goes with weaker binding. What is called Km is the concentration of substrate that gives half-maximal velocity.
